Laboratory results as given in ChEMBL document CHEMBL3352489, “6-Hydroxyquinolinium salts differing in the length of alkyl side-chain: synthesis and antimicrobial activity” (Bioorg Med Chem Lett, 2014).

Key:
[1] = Retention time of the compound by isocratic elution based HPLC method; format: physicochemical
Staphylococcus aureus [2] = assay: microbe, parasite or virus in culture; format: functional; conditions: CCM 4516/08, 24 h
Description: Antibacterial activity against Staphylococcus aureus CCM 4516/08 after 24 hrs by microdilution broth method

Staphylococcus aureus [3] = assay: microbe, parasite or virus in culture; format: functional; conditions: CCM 4516/08, 48 h
Description: Antibacterial activity against Staphylococcus aureus CCM 4516/08 after 48 hrs by microdilution broth method

Staphylococcus aureus [4] = assay: Bactericidal activity against Staphylococcus aureus CCM 4516/08 after 48 hrs by microdilution broth method; format: functional; conditions: CCM 4516/08, 48 h, read-out: MBC>99.9
Staphylococcus aureus [5] = assay: microbe, parasite or virus in culture; format: functional; conditions: H 5996/08, 24 h
Description: Antibacterial activity against Staphylococcus aureus H 5996/08 after 24 hrs by microdilution broth method

Staphylococcus aureus [6] = assay: microbe, parasite or virus in culture; format: functional; conditions: H 5996/08, 48 h
Description: Antibacterial activity against Staphylococcus aureus H 5996/08 after 48 hrs by microdilution broth method

Staphylococcus aureus [7] = assay: Bactericidal activity against Staphylococcus aureus H 5996/08 after 48 hrs by microdilution broth method; format: functional; conditions: H 5996/08, 48 h, read-out: MBC>99.9
[8] = system: Staphylococcus epidermidis; assay: microbe, parasite or virus in culture; format: functional; conditions: H 6966/08, 24 h
Description: Antibacterial activity against Staphylococcus epidermidis H 6966/08 after 24 hrs by microdilution broth method

[9] = system: Staphylococcus epidermidis; assay: microbe, parasite or virus in culture; format: functional; conditions: H 6966/08, 48 h
Description: Antibacterial activity against Staphylococcus epidermidis H 6966/08 after 48 hrs by microdilution broth method

[10] = system: Staphylococcus epidermidis; assay: Bactericidal activity against Staphylococcus epidermidis H 6966/08 after 48 hrs by microdilution broth method; format: functional; conditions: H 6966/08, 48 h, read-out: MBC>99.9
Enterococcus sp. [11] = assay: microbe, parasite or virus in culture; format: functional; conditions: J 14365/08, 24 h
Description: Antibacterial activity against Enterococcus sp. J 14365/08 after 24 hrs by microdilution broth method

Enterococcus sp. [12] = assay: microbe, parasite or virus in culture; format: functional; conditions: J 14365/08, 48 h
Description: Antibacterial activity against Enterococcus sp. J 14365/08 after 48 hrs by microdilution broth method

Enterococcus sp. [13] = assay: Bactericidal activity against Enterococcus sp. J 14365/08 after 48 hrs by microdilution broth method; format: functional; conditions: J 14365/08, 48 h, read-out: MBC>99.9
Escherichia coli [14] = assay: microbe, parasite or virus in culture; format: functional; conditions: CCM 4517, 24 h
Description: Antibacterial activity against Escherichia coli CCM 4517 after 24 hrs by microdilution broth method

Escherichia coli [15] = assay: microbe, parasite or virus in culture; format: functional; conditions: CCM 4517, 48 h
Description: Antibacterial activity against Escherichia coli CCM 4517 after 48 hrs by microdilution broth method

Escherichia coli [16] = assay: Bactericidal activity against Escherichia coli CCM 4517 after 48 hrs by microdilution broth method; format: functional; conditions: CCM 4517, 48 h, read-out: MBC>99.9
Klebsiella pneumoniae [17] = assay: microbe, parasite or virus in culture; format: functional; conditions: D 11750/08, 24 h
Description: Antibacterial activity against Klebsiella pneumoniae D 11750/08 after 24 hrs by microdilution broth method

Klebsiella pneumoniae [18] = assay: microbe, parasite or virus in culture; format: functional; conditions: D 11750/08, 48 h
Description: Antibacterial activity against Klebsiella pneumoniae D 11750/08 after 48 hrs by microdilution broth method

Klebsiella pneumoniae [19] = assay: Bactericidal activity against Klebsiella pneumoniae D 11750/08 after 24 hrs by microdilution broth method; format: functional; conditions: D 11750/08, 24 h, read-out: MBC>99.9
Klebsiella pneumoniae [20] = assay: microbe, parasite or virus in culture; format: functional; conditions: J 14368/08, 24 h
Description: Antibacterial activity against Klebsiella pneumoniae J 14368/08 after 24 hrs by microdilution broth method

Klebsiella pneumoniae [21] = assay: microbe, parasite or virus in culture; format: functional; conditions: J 14368/08, 48 h
Description: Antibacterial activity against Klebsiella pneumoniae J 14368/08 after 48 hrs by microdilution broth method

Klebsiella pneumoniae [22] = assay: Bactericidal activity against Klebsiella pneumoniae J 14368/08 after 48 hrs by microdilution broth method; format: functional; conditions: J 14368/08, 48 h, read-out: MBC>99.9
Pseudomonas aeruginosa [23] = assay: microbe, parasite or virus in culture; format: functional; conditions: CCM 1961, 72 h
Description: Antibacterial activity against Pseudomonas aeruginosa CCM 1961 after 72 hrs by microdilution broth method

Pseudomonas aeruginosa [24] = assay: microbe, parasite or virus in culture; format: functional; conditions: CCM 1961, 120 h
Description: Antibacterial activity against Pseudomonas aeruginosa CCM 1961 after 120 hrs by microdilution broth method

Pseudomonas aeruginosa [25] = assay: Bactericidal activity against Pseudomonas aeruginosa CCM 1961 after 120 hrs by microdilution broth method; format: functional; conditions: CCM 1961, 120 h, read-out: MBC>99.9
Candida albicans [26] = assay: microbe, parasite or virus in culture; format: functional; conditions: ATCC 44859, 24 h
Description: Antifungal activity against Candida albicans ATCC 44859 after 24 hrs by modified standard CSLI M27-A2 method

Candida albicans [27] = assay: microbe, parasite or virus in culture; format: functional; conditions: ATCC 44859, 48 h
Description: Antifungal activity against Candida albicans ATCC 44859 after 48 hrs by modified standard CSLI M27-A2 method

Candida albicans [28] = assay: Fungicidal activity against Candida albicans ATCC 44859 after 48 hrs by modified standard CSLI M27-A2 method; format: functional; conditions: ATCC 44859, 48 h
Candida tropicalis [29] = assay: microbe, parasite or virus in culture; format: functional; conditions: Candida tropicalis, 156, 24 h
Description: Antifungal activity against Candida tropicalis 156 after 24 hrs by modified standard CSLI M27-A2 method

Candida tropicalis [30] = assay: microbe, parasite or virus in culture; format: functional; conditions: Candida tropicalis, 156, 48 h
Description: Antifungal activity against Candida tropicalis 156 after 48 hrs by modified standard CSLI M27-A2 method

Candida tropicalis [31] = assay: Fungicidal activity against Candida tropicalis 156 after 48 hrs by modified standard CSLI M27-A2 method; format: functional; conditions: Candida tropicalis, 156, 48 h
Pichia kudriavzevii [32] = assay: Antifungal activity against Candida krusei E28 after 24 hrs by modified standard CSLI M27-A2 method; format: functional; conditions: E28, 24 h
Pichia kudriavzevii [33] = assay: Antifungal activity against Candida krusei E28 after 48 hrs by modified standard CSLI M27-A2 method; format: functional; conditions: E28, 48 h
Pichia kudriavzevii [34] = assay: Fungicidal activity against Candida krusei E28 after 48 hrs by modified standard CSLI M27-A2 method; format: functional; conditions: E28, 48 h
Nakaseomyces glabratus [35] = assay: Antifungal activity against Candida glabrata 20/I after 24 hrs by modified standard CSLI M27-A2 method; format: functional
Nakaseomyces glabratus [36] = assay: Antifungal activity against Candida glabrata 20/I after 48 hrs by modified standard CSLI M27-A2 method; format: functional
Nakaseomyces glabratus [37] = assay: Fungicidal activity against Candida glabrata 20/I after 48 hrs by modified standard CSLI M27-A2 method; format: functional
Trichosporon asahii [38] = assay: microbe, parasite or virus in culture; format: functional; conditions: Trichosporon asahii, 1188, 24 h
Description: Antifungal activity against Trichosporon asahii 1188 after 24 hrs by modified standard CSLI M27-A2 method

Trichosporon asahii [39] = assay: microbe, parasite or virus in culture; format: functional; conditions: Trichosporon asahii, 1188, 48 h
Description: Antifungal activity against Trichosporon asahii 1188 after 48 hrs by modified standard CSLI M27-A2 method

Trichosporon asahii [40] = assay: Fungicidal activity against Trichosporon asahii 1188 after 48 hrs by modified standard CSLI M27-A2 method; format: functional; conditions: Trichosporon asahii, 1188, 48 h
Aspergillus fumigatus [41] = assay: microbe, parasite or virus in culture; format: functional; conditions: Aspergillus fumigatus, 231, 24 h
Description: Antifungal activity against Aspergillus fumigatus 231 after 24 hrs by modified standard CSLI M27-A2 method

Aspergillus fumigatus [42] = assay: microbe, parasite or virus in culture; format: functional; conditions: Aspergillus fumigatus, 231, 48 h
Description: Antifungal activity against Aspergillus fumigatus 231 after 48 hrs by modified standard CSLI M27-A2 method

Aspergillus fumigatus [43] = assay: Fungicidal activity against Aspergillus fumigatus 231 after 48 hrs by modified standard CSLI M27-A2 method; format: functional; conditions: Aspergillus fumigatus, 231, 48 h
Lichtheimia corymbifera [44] = assay: microbe, parasite or virus in culture; format: functional; conditions: Lichtheimia corymbifera, 272, 24 h
Description: Antifungal activity against Absidia corymbifera 272 after 24 hrs by modified standard CSLI M27-A2 method

Lichtheimia corymbifera [45] = assay: microbe, parasite or virus in culture; format: functional; conditions: Lichtheimia corymbifera, 272, 48 h
Description: Antifungal activity against Absidia corymbifera 272 after 48 hrs by modified standard CSLI M27-A2 method

Lichtheimia corymbifera [46] = assay: Fungicidal activity against Absidia corymbifera 272 after 48 hrs by modified standard CSLI M27-A2 method; format: functional; conditions: Lichtheimia corymbifera, 272, 48 h
[47] = system: Trichophyton mentagrophytes; assay: microbe, parasite or virus in culture; format: functional; conditions: Trichophyton mentagrophytes, 445, 72 h
Description: Antifungal activity against Trichophyton mentagrophytes 445 after 72 hrs by modified standard CSLI M27-A2 method

[48] = system: Trichophyton mentagrophytes; assay: microbe, parasite or virus in culture; format: functional; conditions: Trichophyton mentagrophytes, 445, 120 h
Description: Antifungal activity against Trichophyton mentagrophytes 445 after 120 hrs by modified standard CSLI M27-A2 method

[49] = system: Trichophyton mentagrophytes; assay: Fungicidal activity against Trichophyton mentagrophytes 445 after 120 hrs by modified standard CSLI M27-A2 method; format: functional; conditions: Trichophyton mentagrophytes, 445, 120 h
[50] = Cytotoxicity against CHOK1 cells after 24 hrs by MTT assay; format: ADME, cell-based; conditions: Cricetulus griseus, CHO-K1, 24 h
[51] = Retention time of the compound by gradient elution based HPLC method; format: physicochemical

CCCCCCCCCCCC[n+]1cccc2cc(O)ccc21.[Br-]
Retention_time [1]: 0.95 min | MIC95 (Staphylococcus aureus [2]): 0.49 µM | MIC95 (Staphylococcus aureus [3]): 1.95 µM | MBC (Staphylococcus aureus [4]): 7.81 µM | MIC95 (Staphylococcus aureus [5]): 0.49 µM | MIC95 (Staphylococcus aureus [6]): 1.95 µM | MBC (Staphylococcus aureus [7]): 7.81 µM | MIC95 [8]: 0.49 µM | MIC95 [9]: 0.49 µM | MBC [10]: 0.49 µM | MIC95 (Enterococcus sp. [11]): 0.98 µM | MIC95 (Enterococcus sp. [12]): 1.95 µM | MBC (Enterococcus sp. [13]): 1.95 µM | MIC95 (Escherichia coli [14]): 1.95 µM | MIC95 (Escherichia coli [15]): 1.95 µM | MBC (Escherichia coli [16]): 1.95 µM | MIC95 (Klebsiella pneumoniae [17]): 1.95 µM | MIC95 (Klebsiella pneumoniae [18]): 1.95 µM | MBC (Klebsiella pneumoniae [19]): 1.95 µM | MIC95 (Klebsiella pneumoniae [20]): 3.91 µM | MIC95 (Klebsiella pneumoniae [21]): 3.91 µM | MBC (Klebsiella pneumoniae [22]): 3.91 µM | MIC95 (Pseudomonas aeruginosa [23]): 7.81 µM | MIC95 (Pseudomonas aeruginosa [24]): 7.81 µM | MBC (Pseudomonas aeruginosa [25]): 7.81 µM | MIC (Candida albicans [26]): 0.98 µM | MIC (Candida albicans [27]): 1.95 µM | MFC (Candida albicans [28]): 1.95 µM | MIC (Candida tropicalis [29]): 0.98 µM | MIC (Candida tropicalis [30]): 0.98 µM | MFC (Candida tropicalis [31]): 1.95 µM | MIC (Pichia kudriavzevii [32]): 0.98 µM | MIC (Pichia kudriavzevii [33]): 0.98 µM | MFC (Pichia kudriavzevii [34]): 1.95 µM | MIC (Nakaseomyces glabratus [35]): 0.98 µM | MIC (Nakaseomyces glabratus [36]): 1.95 µM | MFC (Nakaseomyces glabratus [37]): 1.95 µM | MIC (Trichosporon asahii [38]): 0.98 µM | MIC (Trichosporon asahii [39]): 1.95 µM | MFC (Trichosporon asahii [40]): 1.95 µM | MIC (Aspergillus fumigatus [41]): 1.95 µM | MIC (Aspergillus fumigatus [42]): 7.81 µM | MFC (Aspergillus fumigatus [43]): 7.81 µM | MIC (Lichtheimia corymbifera [44]): 3.91 µM | MIC (Lichtheimia corymbifera [45]): 15.6 µM | MFC (Lichtheimia corymbifera [46]): 15.6 µM | MIC [47]: 0.49 µM | MIC [48]: 0.98 µM | MFC [49]: 0.98 µM | IC50 [50]: 50 µM | Retention_time [51]: 9.34 min

CCCCCCCCCCCCCCCC[n+]1cccc2cc(O)ccc21.[Br-]
Retention_time [1]: 3.3 min | MIC95 (Staphylococcus aureus [2]): 0.98 µM | MIC95 (Staphylococcus aureus [3]): 0.98 µM | MBC (Staphylococcus aureus [4]): 7.81 µM | MIC95 (Staphylococcus aureus [5]): 3.91 µM | MIC95 (Staphylococcus aureus [6]): 3.91 µM | MBC (Staphylococcus aureus [7]): 3.91 µM | MIC95 [8]: 0.49 µM | MIC95 [9]: 0.49 µM | MBC [10]: 3.91 µM | MIC95 (Enterococcus sp. [11]): 3.91 µM | MIC95 (Enterococcus sp. [12]): 3.91 µM | MBC (Enterococcus sp. [13]): 7.81 µM | MIC95 (Escherichia coli [14]): 500 µM | MIC95 (Escherichia coli [15]): 500 µM | MBC (Escherichia coli [16]): 500 µM | MIC95 (Klebsiella pneumoniae [17]): > 500 µM | MIC95 (Klebsiella pneumoniae [18]): > 500 µM | MBC (Klebsiella pneumoniae [19]): > 500 µM | MIC95 (Klebsiella pneumoniae [20]): > 500 µM | MIC95 (Klebsiella pneumoniae [21]): > 500 µM | MBC (Klebsiella pneumoniae [22]): > 500 µM | MIC95 (Pseudomonas aeruginosa [23]): > 500 µM | MIC95 (Pseudomonas aeruginosa [24]): > 500 µM | MBC (Pseudomonas aeruginosa [25]): > 500 µM | MIC (Candida albicans [26]): 7.81 µM | MIC (Candida albicans [27]): 7.81 µM | MFC (Candida albicans [28]): 62.5 µM | MIC (Candida tropicalis [29]): 7.81 µM | MIC (Candida tropicalis [30]): 7.81 µM | MFC (Candida tropicalis [31]): 62.5 µM | MIC (Pichia kudriavzevii [32]): 3.91 µM | MIC (Pichia kudriavzevii [33]): 3.91 µM | MFC (Pichia kudriavzevii [34]): 125 µM | MIC (Nakaseomyces glabratus [35]): 3.91 µM | MIC (Nakaseomyces glabratus [36]): 3.91 µM | MFC (Nakaseomyces glabratus [37]): 125 µM | MIC (Trichosporon asahii [38]): 7.81 µM | MIC (Trichosporon asahii [39]): 7.81 µM | MFC (Trichosporon asahii [40]): 62.5 µM | MIC (Aspergillus fumigatus [41]): 15.6 µM | MIC (Aspergillus fumigatus [42]): 15.6 µM | MFC (Aspergillus fumigatus [43]): 250 µM | MIC (Lichtheimia corymbifera [44]): 7.81 µM | MIC (Lichtheimia corymbifera [45]): 7.81 µM | MFC (Lichtheimia corymbifera [46]): 500 µM | MIC [47]: 3.91 µM | MIC [48]: 3.91 µM | MFC [49]: 3.91 µM | IC50 [50]: 20 µM | Retention_time [51]: 10.77 min
